pIC50: −log10 of the molar value.
What was measured:
Format in all cases: biochemical
human GST-CLK1 = biological target: T1, human GST-CLK1 (Homo sapiens, UniProt P49759); experiment: GST-CLK1 enzyme inhibition, ADP-Glo kinase assay; details: ATP 10 μM, GST-CLK1 129-end
T1 construct: purified human GST-CLK1 (129-end, SignalChem) enzyme; purchased SignalChem
In short: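 ADP-Glo luminescence read-out, relative to untreated solvent control, gave IC50 (nM) from triplicate data sets. Reactions ran an hour at 25° C with 3 ng GST-CLK1 (residues 129-end), 10 μM ATP and specific substrate in Tris-HCl pH 7.4 buffer with MgCl2, BSA and DTT.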

LRRK2 (G2019S) = LRRK2 (G2019S) (Homo sapiens, UniProt Q5S007, G2019S); experiment: LRRK2 G2019S enzyme inhibition, ADP-Glo kinase assay; design: purchased SignalChem L10-12GG; details: ATP 25 μM
Chain of LRRK2 (G2019S) (Q5S007 970-2527 G2019S limits assumed): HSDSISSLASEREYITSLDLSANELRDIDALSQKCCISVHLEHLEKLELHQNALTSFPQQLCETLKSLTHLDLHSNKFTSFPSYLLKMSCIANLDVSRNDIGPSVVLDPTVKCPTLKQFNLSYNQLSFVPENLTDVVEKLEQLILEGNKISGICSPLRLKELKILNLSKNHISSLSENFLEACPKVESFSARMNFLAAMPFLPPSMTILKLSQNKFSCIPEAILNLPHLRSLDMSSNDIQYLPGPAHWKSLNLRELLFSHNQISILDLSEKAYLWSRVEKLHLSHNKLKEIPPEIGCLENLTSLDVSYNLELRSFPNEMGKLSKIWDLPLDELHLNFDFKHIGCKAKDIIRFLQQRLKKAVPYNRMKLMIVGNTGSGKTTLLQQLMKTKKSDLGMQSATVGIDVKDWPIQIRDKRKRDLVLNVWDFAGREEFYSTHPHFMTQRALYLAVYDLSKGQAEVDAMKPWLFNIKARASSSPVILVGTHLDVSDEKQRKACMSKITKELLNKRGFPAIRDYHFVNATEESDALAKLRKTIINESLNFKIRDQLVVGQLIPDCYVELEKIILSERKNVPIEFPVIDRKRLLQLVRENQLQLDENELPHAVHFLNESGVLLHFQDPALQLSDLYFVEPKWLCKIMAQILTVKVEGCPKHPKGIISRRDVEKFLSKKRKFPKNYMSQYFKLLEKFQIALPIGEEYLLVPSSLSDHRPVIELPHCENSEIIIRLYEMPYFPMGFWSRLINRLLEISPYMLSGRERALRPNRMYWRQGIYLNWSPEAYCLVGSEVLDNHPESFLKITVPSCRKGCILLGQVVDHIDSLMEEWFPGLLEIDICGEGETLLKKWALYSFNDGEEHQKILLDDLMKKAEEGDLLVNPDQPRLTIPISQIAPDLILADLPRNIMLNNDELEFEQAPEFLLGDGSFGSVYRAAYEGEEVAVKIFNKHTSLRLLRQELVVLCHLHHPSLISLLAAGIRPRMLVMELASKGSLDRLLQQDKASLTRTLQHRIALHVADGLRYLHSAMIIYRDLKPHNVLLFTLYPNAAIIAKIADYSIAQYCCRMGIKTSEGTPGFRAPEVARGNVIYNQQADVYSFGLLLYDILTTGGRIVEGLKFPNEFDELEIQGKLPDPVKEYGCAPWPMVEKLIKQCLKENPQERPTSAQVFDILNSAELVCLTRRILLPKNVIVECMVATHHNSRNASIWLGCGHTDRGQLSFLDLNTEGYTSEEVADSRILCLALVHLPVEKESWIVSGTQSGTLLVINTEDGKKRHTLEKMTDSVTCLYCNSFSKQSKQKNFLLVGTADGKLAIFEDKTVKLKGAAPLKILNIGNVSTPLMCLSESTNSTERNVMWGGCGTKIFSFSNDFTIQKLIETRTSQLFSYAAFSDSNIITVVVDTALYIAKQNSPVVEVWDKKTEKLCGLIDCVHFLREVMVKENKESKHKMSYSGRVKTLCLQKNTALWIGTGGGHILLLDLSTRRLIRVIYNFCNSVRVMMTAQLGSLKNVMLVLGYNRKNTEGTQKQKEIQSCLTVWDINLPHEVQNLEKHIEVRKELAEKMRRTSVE
In short: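 IC50 derived from luminescent ADP-Glo readout against untreated solvent control, twelve final compound concentrations from 50 μM downward. Reaction: recombinant human LRRK2 G2019S enzyme, 25 μM ATP, substrate, pH 7.4 Tris buffer with MgCl2/BSA/DTT, 25° C. for 2 hours.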

LRRK2 = LRRK2 (Homo sapiens, UniProt Q5S007); experiment: LRRK2 enzyme inhibition, ADP-Glo kinase assay; design: purchased Invitrogen PR8604B; details: ATP 10 μM
Chain of LRRK2 (Q5S007 970-2527 limits assumed): as the sequence (Q5S007 970-2527 G2019S limits assumed) above, with S1050G counted along it
In short: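 ADP-Glo luminescent read-out of ADP formed by purified human LRRK2 enzyme (25 ng), 10 μM ATP, 0.2 μg substrate, 25° C for 2 h, Tris-HCl pH 7.4 buffer with MgCl2, BSA, DTT. Inhibition versus untreated solvent control over twelve final concentrations (50 μM downward) gives IC50.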

human GST-DYRK1A = biological target: T2, human GST-DYRK1A (Homo sapiens, UniProt Q13627); experiment: GST-DYRK1A enzyme inhibition, ADP-Glo kinase assay; details: ATP 10 μM, GST-DYRK1A full length, read-out: DYRK1 IC50
T2 construct: purified human GST-DYRK1A (full length, Thermo Scientifics) enzyme; purchased Thermo Scientifics
In short: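 Full-length enzyme (10 ng) was incubated with 10 μM ATP and a specific substrate for 1 h at 25 °C in 40 mM Tris-HCl pH 7.4, 20 mM MgCl2, 0.5 mg/mL BSA, 50 μM DTT. Luminescence was read against a solvent control, and IC50 values were derived from 3 data sets.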

T1 sequence (P49759 129-484 limits assumed): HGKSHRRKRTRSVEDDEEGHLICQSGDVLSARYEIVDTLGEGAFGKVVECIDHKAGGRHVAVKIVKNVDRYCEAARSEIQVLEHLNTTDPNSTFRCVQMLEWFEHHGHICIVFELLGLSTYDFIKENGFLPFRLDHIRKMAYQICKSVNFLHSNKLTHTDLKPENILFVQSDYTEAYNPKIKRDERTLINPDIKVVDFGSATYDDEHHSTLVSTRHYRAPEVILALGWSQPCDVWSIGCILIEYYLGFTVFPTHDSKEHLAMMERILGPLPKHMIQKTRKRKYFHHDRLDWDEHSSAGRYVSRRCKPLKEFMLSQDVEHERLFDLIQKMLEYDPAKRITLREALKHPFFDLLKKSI

Row | pIC50 (human GST-CLK1) | pIC50 (LRRK2 (G2019S)) | pIC50 (LRRK2) | pIC50 (human GST-DYRK1A) | Structure (SMILES)
1 | 6.00 to 6.52 | > 7.00 | > 7.00 | 6.52 to 7.00 | CNc1nc(Nc2ccc(S(C)(=O)=O)cc2OC)nc2[nH]cc(C(F)(F)F)c12 [Example 163, N^2-(2-methoxy-4-(methylsulfonyl)phenyl)-N^4-methyl-5-(trifluoromethyl)-7H-pyrrolo[2,3-d]pyrimidine-2,4-diamine]
2 | 6.00 to 6.52 | 6.52 to 7.00 | > 7.00 | 6.00 to 6.52 | COc1cc(S(C)(=O)=O)ccc1Nc1nc(NC(C)C)c2c(C(F)(F)F)c[nH]c2n1 [Example 166, N^4-isopropyl-N^2-(2-methoxy-4-(methylsulfonyl)-phenyl)-5-(trifluoromethyl)-7H-pyrrolo[2,3-d]pyrimidine-2,4-diamine]
3 | 6.00 to 6.52 | > 7.00 | > 7.00 | 6.00 to 6.52 | CC(C)Nc1nc(Nc2ccc(C(=O)N3CCOCC3)c3c2OCCO3)nc2[nH]cc(C(F)(F)F)c12 [Example 167, (8-((4-(isopropylamino)-5-(trifluoromethyl)-7H-pyrrolo[2,3-d]pyrimidin-2-yl)amino)-2,3-dihydrobenzo[b][1,4]dioxin-5-yl)(morpholino)methanone]

The remaining lines, values behind:

Row | Structure (SMILES) | pIC50 (human GST-CLK1) | pIC50 (LRRK2 (G2019S)) | pIC50 (LRRK2) | pIC50 (human GST-DYRK1A)
4 | CCNc1nc(Nc2ccc(C(=O)N3CCC(N4CCOCC4)CC3)c3c2OCCO3)nc2[nH]cc(C#N)c12 [Example 137, 4-(ethylamino)-2-((8-(4-morpholinopiperidine-1-carbonyl)-2,3-dihydrobenzo[b][1,4]dioxin-5-yl)amino)-7H-pyrrolo[2,3-d]pyrimidine-5-carbontrile] | > 7.00 | > 7.00 | > 7.00 | 6.52 to 7.00
5 | N#Cc1c[nH]c2nc(Nc3ccc(C(=O)N4CCC(N5CCOCC5)CC4)c4c3OCCO4)nc(NC3CC3)c12 [Example 141, 4-(cyclopropylamino)-2-((8-(4-morpholinopiperidine-1-carbonyl)-2,3-dihydrobenzo[b][1,4]dioxin-5-yl)amino)-7H-pyrrolo[2,3-d]pyrimidine-5-carbonitrile] | > 7.00 | > 7.00 | > 7.00 | 6.00 to 6.52
6 | CNc1nc(Nc2ccc(C(=O)N3CCOCC3)c3c2OCCO3)nc2[nH]cc(C(F)(F)F)c12 [Example 155, (8-((4-(methyalmino)-5-(trifluoromethyl)-7H-pyrrolo[2,3-d]pyrimidin-2-yl)amino)-2,3-dihydrobenzo[b][1,4]dioxin-5-yl)(morpholino)methanone 2,2,2-trifluoroacetate] | > 7.00 | > 7.00 | > 7.00 | > 7.00
7 | CCNc1nc(Nc2ccc(C(=O)N3CCOCC3)c3c2OCCO3)nc2[nH]cc(C(F)(F)F)c12 [Example 156, (8-((4-(ethylamino)-5-(trifluoromethyl)-7H-pyrrolo[2,3-d]pyrimidin-2-yl)amino)-2,3-dihydrobenzo[b][1,4]dioxin-5-yl)(morpholino)methanone 2,2,2-trifluoroacetate] | > 7.00 | > 7.00 | > 7.00 | 6.52 to 7.00
8 | CCNc1nc(Nc2ccc(S(C)(=O)=O)cc2OC)nc2[nH]cc(C(F)(F)F)c12 [Example 159, N^4-ethyl-N^2-(2-methoxy-4-(methylsulfonyl)phenyl)-5-(trifluoromethyl)-7H-pyrrolo[2,3-d]pyrimidine-2,4-diamine] | 6.00 to 6.52 | 6.00 to 6.52 | > 7.00 | 6.00 to 6.52
9 | CCCNc1nc(Nc2ccc(C(=O)N3CCOCC3)c3c2OCCO3)nc2[nH]cc(C(F)(F)F)c12 [Example 162, morpholino(8-((4-(propylamino)-5-(trifluoromethyl)-7H-pyrrolo[2,3-d]pyrimidin-2-yl)amino)-2,3-dihydrobenzo[b][1,4]dioxin-5-yl)methanone] | 6.00 to 6.52 | > 7.00 | > 7.00 | 6.00 to 6.52

Reference: patent US20230066011A1, “PYRROLOPYRIMIDINE DERIVATIVE, AND PHARMACEUTICAL COMPOSITION FOR PREVENTING OR TREATING PROTEIN KINASE-RELATED DISEASE COMPRISING SAME AS ACTIVE INGREDIENT” (VORONOI CO., LTD., priority 2019, published 2023)
